Data published in patent US6566361B2, “Azapirone pain treatment” (priority 1999, dated 2003).

Key:
albino rats [1] = assay: Preclinical model of chronic pain (rat formalin test, phase II flinches); format: in vivo; conditions: single ip delivery: morphine 4 mg/kg, buspirone 3 mg/kg, acetaminophen 300 mg/kg
Description: To assess responses to a chronic stimulus (subcutaneous formalin injection), animals are first placed in clear observation boxes for a 30 min acclimation period prior to testing. Animals are subsequently removed and the dorsum of one hindpaw is injected s.c. with 50 microliters of 2.5% formalin. […] The total number of flinches is computer scored during the chronic phase (10-90 min after formalin) using a commercially available device (George Ozaki, Automated Nocicpetion Analyzer, Department of Anesthesiology, University of California, San Diego; La Jolla, Calif.) which automates the manual procedure described previously by Wheeler-Aceto et al. (Pain 40:229-238, 1990). All drugs are delivered at 30 min prior to formalin injection by the intraperitoneal (i.p.) route in a volume of 2 ml/kg. […] For acetaminophen (Sigma, A7085) the vehicle was 40% polyethylene glycol 400 (PEG-400), 10% EtOH, 15% Tween 80, and 35% deionized H2O (PETW). Acetaminophen was disolved sequentially in two parts: 1) first into a solution of 80% PEG 400+20% EtOH, and 2) then slowly added to it was an equal volume of 30% Tween 80+70% deionized H2O (sonicated as needed). Each animal received two injections at time zero. Specifically, animals were tested in one of the following 5 treatment conditions (abbreviations used in figures are shown under ‘Key” below): […]

rats = assay: Preclinical model of neuropathic pain (Chung spinal nerve L5/L6 ligation, von Frey test); format: in vivo, rat; conditions: buspirone 3 mg/kg ip; acetaminophen 200 mg/kg ip; or both coadministered
Description: J Neurosci Methods. […] For acetaminophen (Sigma, A7085) the vehicle was 40% polyethylene glycol 400 (PEG-400), 10% EtOH, 15% Tween 80, and 35% deionized H2O (PETW). Acetaminophen was disolved sequentially in two parts: 1) first into a solution of 80% PEG 400+20% EtOH, and 2) then slowly added to it was an equal volume of 30% Tween 80+70% deionized H2O (sonicated as needed). Each animal received two injections at time zero.

mouse = assay: Mouse hot plate test (Eddy et al.); format: in vivo; conditions: buspirone to acetaminophen weight ratios of 1:3, 1:10, and 1:30
[2] = in vivo; cited from earlier work
[3] = acute high doses; cited from earlier work
[4] = in vivo; cited from earlier work; remark: listed apart in the source
albino rats [5] = assay: Rat hindpaw withdrawal (thermal escape) test for analgesia (acute pain); format: in vivo; conditions: for Hindpaw thermal escape latency from 30 min to 120 min: ipsapirone 20 mg/kg ip, acetaminophen 300 mg/kg ip, or both coadministered, vs vehicle; for Thermal escape latencies vs vehicle, single administration: tandospirone 5 mg/kg ip alone, acetaminophen 300 mg/kg ip alone
Description: To assess the thermally evoked paw-withdrawal response, a commercially available device was used. Specifics of device construction and operation have been published previously (Dirig D M, Salami A, Rathbun M L, Ozaki G T, Yaksh T L. Characterization of variables defining hindpaw withdrawal latency evoked by radiant thermal stimuli. J Neurosci Methods. Oct. 3, 1997; 76(2):183-91). This device is comprised of a glass surface on which the rats were placed individually in Plexiglas cubicles (9×22×25 cm). The surface is maintained at 30° C. by a feedback-controlled, under-glass, forced-air heating system. The thermal nociceptive stimulus originates from a projection bulb below the glass that can be manipulated in a two-dimensional axis on ball bearing slides. This apparatus allows the stimulus to be delivered separately to each hind paw with the aid of an angled mirror mounted on the stimulus source. A timer is actuated with the light source, and escape latency is defined as the time between stimulus onset and the display of a brisk paw withdrawal (detected by photodiode motion sensors that stops the timer and terminates the stimulus; cut-off time for a non-response is 20 sec which triggers automatic termination of the stimulus). In the present study, animals are placed in test boxes for 30 min acclimation and then baseline escape latency is assessed separately for each hindpaw (left and right) at −15 min. All drugs are delivered at 0 min by the intraperitoneal (i.p.) route in a volume of 3 ml/kg. […] For acetaminophen (Sigma, A7085) the vehicle was 40% polyethylene glycol 400 (PEG-400), 10% EtOH, 15% Tween 80, and 35% deionized H2O (PETW). Acetaminophen was disolved sequentially in two parts: 1) first into a solution of 80% PEG 400+20% EtOH, and 2) then slowly added to it was an equal volume of 30% Tween 80+70% deionized H2O (sonicated as needed). Other azapirone vehicles were Gepirone (saline), ipsapirone (deionized H2O), and tandospirone (DMA+PETW), DMA=5% dimethylacetamide. Each animal received two injections at time zero. Specifically, animals were tested in one of the following 10 treatment conditions (abbreviations used in figures are shown under ‘Key” below):
Following drug administration, thermal escape latencies are measured at regular intervals (e.g., 15, 30, 60, 90 and 120 min, mean of both paws is used for statistical analysis).

[6] = Rat plasma concentrations of buspirone and APAP over time; format: in vivo
Description: It also has agonistic action at presynaptic D2 dopaminergic receptors. Acetaminophen is believed to act by elevating the pain threshold in patients.

Compound	Formalin-induced flinches relative to vehicle (albino rats [1])	von Frey thresholds, injured side (neuropathic pain responses) (rats)	Hindpaw thermal escape latency from 30 min to 120 min (albino rats [5])	Thermal escape latencies vs vehicle, single administration (albino rats [5])	also measured
8-[4-[4-(2-pyrimidinyl)1-piperazinyl]butyl-8-azaspiro(4,5)-decane-7,9-dione [buspirone]	significantly suppressed	not significantly different from vehicle	–	–	Potentiation of acetaminophen in hot plate test (mouse): demonstrated potentiation of acetaminophen; Type of analgesia produced [2]: non-opioid type of analgesia; Relief of neuropathic pain [3]: did not relieve neuropathic pain; Effect on xylazine-induced antinociception [4]: attenuate xylazine-induced antinociception
CC(=O)Nc1ccc(O)cc1 [acetaminophen]	significantly suppressed	partial reversal toward normal at 30-120 min	a comparably high level of analgesia was not consistently attached throughout this same time period	did not differ from vehicle until 90 min after injection	Hindpaw thermal escape response, Area Under the Curve (AUC) from thermal escape latencies (sec) over 120 min post injection (albino rats [5]; acetaminophen 300 mg/kg ip, compared to vehicle): elevated significantly above vehicle; Plasma concentrations over time, alone vs in combination [6]: do not differ significantly whether given alone or in combination
O=C1c2ccccc2S(=O)(=O)N1CCCCN1CCN(c2ncccn2)CC1 [ipsapirone]	–	–	a comparably high level of analgesia was not consistently attached throughout this same time period	–	–
CN1CC[C@]23c4c5ccc(O)c4O[C@H]2[C@@H](O)C=C[C@H]3[C@H]1C5 [morphine]	significantly suppressed	–	–	–	–
O=C1[C@@H]2[C@H]3CC[C@H](C3)[C@@H]2C(=O)N1CCCCN1CCN(c2ncccn2)CC1 [tandospirone]	–	–	–	did not differ from vehicle until 90 min after injection	–
